Test results taken from publication PMC10384675, “Novel Thiazolidine-2,4-dione-trimethoxybenzene-thiazole Hybrids as Human Topoisomerases Inhibitors” (Pharmaceuticals, 2023).

How the values were obtained:
[1] = system: MDA-MB-231 breast cancer cells; assay: MTT cell viability assay, MDA-MB-231; format: cell-based; conditions: Homo sapiens, 72 h
Method: (§1) All of the synthesized compounds (7a–f) were studied to test their anticancer activity toward the estrogen receptor-positive (ER+) MCF-7 and the triple-negative MDA-MB-231 breast cancer cells (ER-, PR- and HER-2/Neu not overexpressed) and A2058 melanoma cells. Cells were incubated for 72 h with different concentrations of the compounds, and then the viability was checked by the MTT assay. […] Moreover, we checked the cytotoxicity of all of the synthesized compounds against the human MCF-10A non-malignant breast epithelial cells and mouse BALB/3T3 embryonic fibroblasts, in order to evaluate their selectivity on cancer cells.
(§2) The used cell lines (breast cancer cell lines MCF-7 and MDA-MB-231, melanoma cell line A2058 and human mammary epithelial cell line MCF-10A) were obtained from American Type Culture Collection (ATCC, Manassas, VA, USA) and cultured as already reported. The mouse BALB/3T3 embryonic fibroblasts were also purchased from American Type Culture Collection (ATCC, Manassas, VA, USA) and cultured in DMEM high glucose supplemented with 10% bovine calf serum (BCS) and 100 U mL^−1 penicillin/streptomycin.
(§3) MTT assay (Sigma Aldrich (St. Louis, MO, USA)) was performed for evaluating the in vitro anticancer activities of the compounds, as previously indicated. Different concentrations (0.1, 1, 10, 25, 50, and 100 μM) of the compounds were employed, with a 72 h endpoint. IC50 values were obtained from the percent (%) of control using GraphPad Prism 9 (GraphPad Software, La Jolla, CA, USA).

A2058 melanoma cells = assay: MTT cell viability assay, A2058; format: cell-based; conditions: Homo sapiens, 72 h
Method: as §1, §2, §3

[2] = system: human MCF-10A non-malignant breast epithelial cells; assay: MTT cytotoxicity assay, MCF-10A; format: cell-based; conditions: 72 h, normal cells
Method: as §1, §2, §3

hTopo I = target: T1, hTopo I (Homo sapiens, UniProt P11387); assay: hTopo I relaxation assay; format: biochemical; parameters: key to Topoisomerase Inhibition hTopo I: (+) inhibition; (−) no inhibition; (+/−) partial inhibition; conditions: 10 µM
T1 construct: purchased TopoGEN, Port Orange, FL, USA
T1 sequence (P11387 1-765): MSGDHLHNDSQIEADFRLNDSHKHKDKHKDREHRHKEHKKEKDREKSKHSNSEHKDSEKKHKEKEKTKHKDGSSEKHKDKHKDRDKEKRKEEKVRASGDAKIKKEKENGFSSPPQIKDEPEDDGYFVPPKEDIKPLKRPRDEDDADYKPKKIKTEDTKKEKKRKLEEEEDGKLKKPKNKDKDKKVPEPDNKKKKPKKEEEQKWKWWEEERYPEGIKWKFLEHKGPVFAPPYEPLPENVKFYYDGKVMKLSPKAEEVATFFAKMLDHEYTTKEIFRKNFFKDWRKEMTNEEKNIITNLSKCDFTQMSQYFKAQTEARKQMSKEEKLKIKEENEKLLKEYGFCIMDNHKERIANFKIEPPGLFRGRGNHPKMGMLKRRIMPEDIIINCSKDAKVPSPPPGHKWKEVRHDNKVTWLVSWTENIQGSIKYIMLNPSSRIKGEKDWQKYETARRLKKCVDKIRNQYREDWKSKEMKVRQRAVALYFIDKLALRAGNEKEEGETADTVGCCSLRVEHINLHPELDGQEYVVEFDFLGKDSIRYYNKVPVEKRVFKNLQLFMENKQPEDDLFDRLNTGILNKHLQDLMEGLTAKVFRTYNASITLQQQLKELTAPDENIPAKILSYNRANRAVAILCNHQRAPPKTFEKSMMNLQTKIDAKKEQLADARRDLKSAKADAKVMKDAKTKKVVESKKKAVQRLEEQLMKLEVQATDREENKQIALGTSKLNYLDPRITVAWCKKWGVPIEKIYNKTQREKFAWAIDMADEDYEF
Description: Thiazoles and their derivatives are extensively recognized as chemical nuclei of great interest for producing molecules with multiple biological properties. In particular, several compounds bearing these heterocycles were studied for their capability to interfere with DNA topoisomerases (Topos), ubiquitous enzymes essential in several key cellular processes. In recent years, these enzymes have become popular targets in cancer therapy; indeed, the topoisomerase inhibitors can induce damage to genome integrity. Consequently, the inhibition of topoisomerases leads to cell death by apoptosis and, thus, is fatal. Thus, we carried out two specific tests in vitro for both of the Topos, namely the hTopo I relaxation and the hTopo II decatenation assays. For the hTopo I relaxation assay, we exposed the enzyme to the most interesting compounds, 7b–7e, at the final concentration of 10 µM for 1 h at 37 °C, using as substrate the supercoiled pHOT1 (see Section 4 Materials and Methods for more details). […] Contrarily, in the CTRL lane, where the hTopo I was exposed to only vehicle (DMSO), several bands due to pHOT1 DNA cleavage were present (Figure 3, lane C). […] In Figure 3, panel B, the hTopo I inhibition results using ellipticine, as reference molecule are shown. […] An electrophoretic mobility shift of the pHOT1 DNA was also noticeable, due to the intercalating properties of ellipticine.
hTopo I relaxation assays were performed by incubating the substrate (supercoiled pHOT1) with the recombinant hTopo I (TopoGEN, Port Orange, FL, USA) and compounds, as indicated in the supplier protocol (TopoGEN, Port Orange, FL, USA), with some revisions. hTopo II decatenation assays were conducted by incubating the kinetoplast DNA substrate (kDNA) with the hTopo II (TopoGEN, Port Orange, FL) and studied compounds, as indicated in the supplier procedures (TopoGEN, Port Orange, FL, USA), with some changes as in [80].
Figure 3 hTopo I relaxation assay. Plasmid pHOT1, used as substrate, was incubated with hTopo I with or without the studied compounds 7b–7e (10 µM concentration), panel (A), and with or without ellipticine (10 and 50 µM concentration), panel (B). Lane A, relaxed DNA marker; lane B, pHOT1 supercoiled DNA, lane C, CTRL (DMSO), lane D–G, compounds 7b–7e 10 µM, respectively. Lane 1, pHOT1 supercoiled DNA; lane 2, CTRL (DMSO), lanes 3–4, ellipticine 10 and 50 µM, respectively.

caspase-9 = assay: Caspase-Glo assay, caspase-9; format: cell-based, human; conditions: MCF-7 cells, at IC50 value, 24 h, vs vehicle
Method: Once established that mitochondria were damaged and cyt c released into the cytoplasm, we evaluated the ability of compound 7e treatment (used at its IC50 value) in modulating caspase activity.
The caspase-Glo Assay (Caspase-Glo® 3/7, 8 and 9 Assay Systems, Promega Corporation, Madison, WI) was used to detect caspase-3/7, -8 and -9 activities, as reported in [82]. Briefly, cells were grown in white-walled 96-well plates, treated with the compound, and 100 µL of each […] was added.
Figure 7 Caspase activity in MCF-7 cells. […] Columns mean, bars SD; * p < 0.001; n.s., not significant (treated vs. CTRL).

IC50 [1]: 41.2 ± 0.9 µM | IC50 (A2058 melanoma cells): 8.4 ± 0.9 µM | Topoisomerase Inhibition hTopo I (hTopo I): − | hTopo I activity inhibition (in words) (hTopo I; 1 h, 37 °C, supercoiled pHOT1): able to inhibit hTopo I activity | caspase-9 activity (caspase-9): noticeable increase
Compound: COc1cc(/C=C2\SC(=O)N(CC(=O)Nc3nc(-c4ccc(Br)cc4)cs3)C2=O)cc(OC)c1OC [compound 7e, (Z)-2-(5-(3,4,5-Trimethoxybenzylidene)thiazolidin-2,4-dion-3-yl)-N-(4-(4-bromophenyl)thiazol-2-yl)acetamide]
IC50 [2]: > 100 µM
